Assay results published in PubChem BioAssay AID192 (DTP/NCI, 2004).
Where “and” joins values, the source holds several entries; their conditions need not be identical. Equal values may be shown once. Toxic doses and inconclusive results are not listed.

System: BDF1 mice, B16 melanoma ip, median survival T/C
Experiment: NCI In Vivo Anticancer Drug Screen. Data for tumor model B16 Melanoma (intraperitoneal) in B6D2F1 (BDF1) mice
Details: endpoint: median survival time, higher = longer survival
Method in brief: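 Tumor-bearing mice received test compound or vehicle. Survival or tumor size was then measured in both groups. The treated-group figure was divided by the control-group figure.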

[1] = dose: 50.0 mg/kg/injection, schedule: Q01DX009 (ip), vehicle: saline with Tween-80
[2] = dose: 100.0 mg/kg/injection, schedule: Q01DX009 (ip), vehicle: saline with Tween-80
[3] = dose: 200.0 mg/kg/injection, schedule: Q01DX009 (ip), vehicle: saline with Tween-80
[4] = dose: 100.0 mg/kg/injection, schedule: Q01DX009 (ip), vehicle: Klucel (hydroxypropylcellulose) (HPC)
[5] = dose: 25.0 mg/kg/injection, schedule: Q01DX009 (ip), vehicle: saline with Tween-80
[6] = dose: 25.0 mg/kg/injection, schedule: Q01DX009 (ip), vehicle: saline
[7] = dose: 50.0 mg/kg/injection, schedule: Q01DX009 (ip), vehicle: saline
[8] = dose: 12.5 mg/kg/injection, schedule: Q01DX009 (ip), vehicle: saline with Tween-80
[9] = dose: 100.0 mg/kg/injection, schedule: Q04DX003 (ip), vehicle: Klucel (hydroxypropylcellulose) (HPC)
[10] = dose: 75.0 mg/kg/injection, schedule: Q01DX009 (ip), vehicle: Klucel (hydroxypropylcellulose) (HPC)
[11] = dose: 150.0 mg/kg/injection, schedule: Q01DX009 (ip), vehicle: Klucel (hydroxypropylcellulose) (HPC)
[12] = dose: 300.0 mg/kg/injection, schedule: Q01DX009 (ip), vehicle: Klucel (hydroxypropylcellulose) (HPC)

How did the T/C [1] turn out when `CS(=O)(=O)OCC(O)C(O)COS(C)(=O)=O` (centres undefined) was run?
The T/C was 100 % of control.

And the T/C [2]?
Its T/C is 102 % of control.

And the T/C [3]?
Its T/C is 103 % of control and 114 % of control.

What about the T/C (dose: 800.0 mg/kg/injection, schedule: Q01DX009 (ip), vehicle: saline with Tween-80) of the same molecule?
The T/C was 153 % of control.

Which results are given for `COC(=O)C1C(O)C(C)C(O)C(C)(O)C=C(C)C2=C3C(=C(C)C(=O)c4c(O)c(c(C)c(OC(C)=O)c43)NC(=O)C(C)=C/C=C\C(C)(O)C(O)C(C)C1O)OCO2` (centres undefined)?
T/C (dose: 50.0 mg/kg/injection, schedule: Q01DX009 (ip), vehicle: Klucel (hydroxypropylcellulose) (HPC)): 94 % of control; T/C [4]: 94 % of control; T/C (dose: 200.0 mg/kg/injection, schedule: Q01DX009 (ip), vehicle: Klucel (hydroxypropylcellulose) (HPC)): 91 % of control

`NC(=O)Oc1cccc(OC(N)=O)c1` was tested. Which T/C (dose: 12.5 mg/kg/injection, schedule: Q01DX009 (ip), vehicle: water) did it give?
Its T/C is 89 % of control.

And the T/C (dose: 25.0 mg/kg/injection, schedule: Q01DX009 (ip), vehicle: water)?
Its T/C is 94 % of control.

And the T/C (dose: 50.0 mg/kg/injection, schedule: Q01DX009 (ip), vehicle: water)?
The T/C was 93 % of control.

What about the T/C (dose: 100.0 mg/kg/injection, schedule: Q01DX009 (ip), vehicle: water) of the same molecule?
Its T/C is 105 % of control.

What about the T/C (dose: 200.0 mg/kg/injection, schedule: Q01DX009 (ip), vehicle: water) of the same molecule?
Its T/C is 93 % of control.

What about the T/C (dose: 400.0 mg/kg/injection, schedule: Q01DX009 (ip), vehicle: water) of the same molecule?
Its T/C is 107 % of control.

What does the source list for `N[C@H](C(=O)O)[C@@H]1CC(Cl)=NO1`?
T/C (dose: 0.25 mg/kg/injection, schedule: Q01DX009 (ip), vehicle: saline): 93 % of control and 96 % of control and 102 % of control; T/C (dose: 0.75 mg/kg/injection, schedule: Q01DX009 (ip), vehicle: saline): 112 % of control; T/C (dose: 1.5 mg/kg/injection, schedule: Q01DX009 (ip), vehicle: saline): 110 % of control; T/C (dose: 3.0 mg/kg/injection, schedule: Q01DX009 (ip), vehicle: saline): 114 % of control; T/C (dose: 6.0 mg/kg/injection, schedule: Q01DX009 (ip), vehicle: saline): 156 % of control; T/C (dose: 12.0 mg/kg/injection, schedule: Q01DX009 (ip), vehicle: saline): 57 % of control

What does the source list for `CCCCNC(=O)Nc1cccc(C)c1C`?
T/C [4]: 88 % of control; T/C (dose: 400.0 mg/kg/injection, schedule: Q01DX009 (ip), vehicle: Klucel (hydroxypropylcellulose) (HPC)): 94 % of control

Which T/C (dose: 1.0 mg/kg/injection, schedule: Q01DX009 (ip), vehicle: saline with Tween-80) does the source give for `CCCCCCCCCCCCCCCC(=O)OCC1OC(n2ccc(N)nc2=O)C(O)C1O` (centres undefined) here?
The T/C was 103 % of control.

What about the T/C (dose: 2.0 mg/kg/injection, schedule: Q01DX009 (ip), vehicle: saline with Tween-80) of the same molecule?
The T/C was 114 % of control.

And the T/C (dose: 2.5 mg/kg/injection, schedule: Q01DX001 (ip), vehicle: saline with Tween-80)?
Its T/C is 99 % of control.

What about the T/C (dose: 4.0 mg/kg/injection, schedule: Q01DX009 (ip), vehicle: saline with Tween-80) of the same molecule?
The T/C was 116 % of control.

What about the T/C (dose: 5.0 mg/kg/injection, schedule: Q01DX001 (ip), vehicle: saline with Tween-80) of the same molecule?
Its T/C is 100 % of control.

What about the T/C (dose: 10.0 mg/kg/injection, schedule: Q01DX001 (ip), vehicle: saline with Tween-80) of the same molecule?
The T/C was 110 % of control.

What about the T/C (dose: 20.0 mg/kg/injection, schedule: Q01DX001 (ip), vehicle: saline with Tween-80) of the same molecule?
Its T/C is 104 % of control.

And the T/C (dose: 25.0 mg/kg/injection, schedule: Q04DX003 (ip), vehicle: saline with Tween-80)?
The T/C was 122 % of control.

And the T/C (dose: 30.0 mg/kg/injection, schedule: Q01DX009 (ip), vehicle: saline with Tween-80)?
The T/C was 170 % of control.

What about the T/C (dose: 37.5 mg/kg/injection, schedule: Q01DX001 (ip), vehicle: saline) of the same molecule?
The T/C was 152 % of control.

What about the T/C (dose: 75.0 mg/kg/injection, schedule: Q01DX001 (ip), vehicle: saline) of the same molecule?
The T/C was 186 % of control.

Which results are given for `CC(=O)Nc1ccn(C2OC(CO)C(O)C2O)c(=O)n1` (centres undefined)?
T/C [5]: 88 % of control; T/C [1]: 97 % of control; T/C [3]: 92 % of control

What does the source list for `NC(N)=NC1CCCC1`?
T/C (dose: 12.5 mg/kg/injection, schedule: Q01DX009 (ip), vehicle: saline): 97 % of control; T/C [6]: 114 % of control; T/C [7]: 98 % of control

With `CCOC(=O)N1C(=O)c2ccccc2C1=O` as the molecule, how does the T/C [5] read?
Its T/C is 94 % of control.

What about the T/C [1] of the same molecule?
Its T/C is 94 % of control.

What about the T/C [2] of the same molecule?
The T/C was 86 % of control.

How did the T/C [6] turn out when `CN1CCC=C(CN(c2ccccc2)c2ccccc2)C1` was run?
Its T/C is 92 % of control.

What about the T/C [7] of the same molecule?
The T/C was 89 % of control.

What about the T/C (dose: 100.0 mg/kg/injection, schedule: Q01DX009 (ip), vehicle: saline) of the same molecule?
The T/C was 92 % of control.

For `O=C(OC1C(O)OC2COC(=O)c3cc(O)c(O)c(O)c3-c3c(cc(O)c(O)c3O)C(=O)OC2C1O)c1cc(O)c(O)c(O)c1` (centres undefined), which T/C (dose: 3.75 mg/kg/injection, schedule: Q01DX009 (ip), vehicle: saline) is on record?
Its T/C is 99 % of control.

What about the T/C (dose: 7.5 mg/kg/injection, schedule: Q01DX009 (ip), vehicle: saline) of the same molecule?
The T/C was 112 % of control.

With `O=c1cc(O)c1=O` as the molecule, how does the T/C (dose: 0.78 mg/kg/injection, schedule: Q01DX009 (ip), vehicle: saline with Tween-80) read?
Its T/C is 106 % of control.

And the T/C (dose: 1.56 mg/kg/injection, schedule: Q01DX009 (ip), vehicle: saline with Tween-80)?
The T/C was 104 % of control.

And the T/C (dose: 3.13 mg/kg/injection, schedule: Q01DX009 (ip), vehicle: saline with Tween-80)?
Its T/C is 110 % of control.

And the T/C (dose: 6.25 mg/kg/injection, schedule: Q01DX009 (ip), vehicle: saline with Tween-80)?
The T/C was 109 % of control.

And the T/C [8]?
Its T/C is 93 % of control.

Which T/C [9] does the source give for `NC(CO)C(O)c1ccc([N+](=O)[O-])cc1` (centres undefined) here?
Its T/C is 97 % of control.

And the T/C (dose: 200.0 mg/kg/injection, schedule: Q04DX003 (ip), vehicle: Klucel (hydroxypropylcellulose) (HPC))?
The T/C was 95 % of control.

What about the T/C (dose: 400.0 mg/kg/injection, schedule: Q04DX003 (ip), vehicle: Klucel (hydroxypropylcellulose) (HPC)) of the same molecule?
Its T/C is 86 % of control.

Which results are given for `CC(=O)NNC(=O)c1ccccc1`?
T/C (dose: 12.5 mg/kg/injection, schedule: Q#A X018 (ip), vehicle: water): 93 % of control; T/C (dose: 25.0 mg/kg/injection, schedule: Q#A X018 (ip), vehicle: water): 93 % of control; T/C (dose: 50.0 mg/kg/injection, schedule: Q#A X018 (ip), vehicle: water): 106 % of control

With `CCCCCCCCCCCCCCCC#N` as the molecule, how does the T/C (dose: 25.0 mg/kg/injection, schedule: Q04DX003 (ip), vehicle: Klucel (hydroxypropylcellulose) (HPC)) read?
The T/C was 99 % of control.

What about the T/C (dose: 50.0 mg/kg/injection, schedule: Q04DX003 (ip), vehicle: Klucel (hydroxypropylcellulose) (HPC)) of the same molecule?
Its T/C is 96 % of control.

And the T/C [9]?
The T/C was 92 % of control.

For `N[C@H](C(=O)O)[C@H]1ON=C(Cl)[C@@H]1O`, which T/C (dose: 4.0 mg/kg/injection, schedule: Q01DX009 (ip), vehicle: saline) is on record?
Its T/C is 90 % of control.

What about the T/C (dose: 8.0 mg/kg/injection, schedule: Q01DX009 (ip), vehicle: saline) of the same molecule?
The T/C was 94 % of control.

What about the T/C (dose: 16.0 mg/kg/injection, schedule: Q01DX009 (ip), vehicle: saline) of the same molecule?
Its T/C is 103 % of control.

What about the T/C (dose: 32.0 mg/kg/injection, schedule: Q01DX009 (ip), vehicle: saline) of the same molecule?
The T/C was 106 % of control.

What about the T/C (dose: 64.0 mg/kg/injection, schedule: Q01DX009 (ip), vehicle: saline) of the same molecule?
The T/C was 102 % of control and 115 % of control.

What about the T/C (dose: 128.0 mg/kg/injection, schedule: Q01DX009 (ip), vehicle: saline) of the same molecule?
The T/C was 101 % of control.

And the T/C (dose: 256.0 mg/kg/injection, schedule: Q01DX009 (ip), vehicle: saline)?
The T/C was 107 % of control.

And the T/C (dose: 512.0 mg/kg/injection, schedule: Q01DX009 (ip), vehicle: saline)?
Its T/C is 109 % of control.

Which results are given for `CC(NC1=NCCO1)c1cccc2ccccc12` (centres undefined)?
T/C (dose: 8.0 mg/kg/injection, schedule: Q04DX003 (ip), vehicle: saline with Tween-80): 102 % of control; T/C (dose: 12.0 mg/kg/injection, schedule: Q04DX003 (ip), vehicle: saline with Tween-80): 115 % of control; T/C [8]: 102 % of control; T/C (dose: 18.0 mg/kg/injection, schedule: Q04DX003 (ip), vehicle: saline with Tween-80): 102 % of control; T/C [5]: 106 % of control; T/C [1]: 93 % of control; T/C (dose: 50.0 mg/kg/injection, schedule: Q04DX003 (ip), vehicle: saline with Tween-80): 123 % of control

What does the source list for `CC1(O)CC2CCC1C2` (centres undefined)?
T/C (dose: 100.0 mg/kg/injection, schedule: Q04DX003 (ip), vehicle: saline with Tween-80): 102 % of control; T/C (dose: 200.0 mg/kg/injection, schedule: Q04DX003 (ip), vehicle: saline with Tween-80): 102 % of control; T/C (dose: 400.0 mg/kg/injection, schedule: Q04DX003 (ip), vehicle: saline with Tween-80): 100 % of control

What does the source list for `CCc1cccc2ccccc12`?
T/C [10]: 118 % of control; T/C [11]: 121 % of control; T/C [12]: 106 % of control

Which results are given for `COc1cccc(OC)c1OC(=O)/C=C\C(=O)Oc1c(OC)cccc1OC`?
T/C [10]: 100 % of control; T/C [11]: 100 % of control; T/C [12]: 100 % of control
